US7939292B2, “Modified heparinase III and methods of sequencing therewith” (Massachusetts Institute of Technology, priority 2000, dated 2011)

Columns and labels:
Assay type in all cases: biochemical, Flavobacterium heparinum
heparinase III [1] = molecular target: T1, heparinase III (Pedobacter heparinus, UniProt Q59289); test: DEPC inactivation of heparinase III (UV 232 nm activity assay)
T1 construct: compared to the native heparinase III isolated directly from Flavobacterium heparinum; purchased IBEX Technologies (Montreal, Canada), received as a gift rather than bought; host or cells: Flavobacterium heparinum (natural producer)
Method: The activity of heparinase III was measured using a UV 232 nm assay similar to those reported for heparinase I and heparinase II (Godavarti, R., Cooney, C. L., Langer, R., and Sasisekharan, R. (1996) Biochemistry 35, 6846-52; Shriver, Z., Hu, Y., and Sasisekharan, R. (1998) J. Biol. Chem. 273, 10160-67; and Lohse, D. and Linhardt, R. J. (1992) J. Biol. Chem. 267, 781-87). Briefly, the increase in absorbance at 232 nm as a function of time was monitored under saturating substrate conditions. All assays were performed with heparan sulfate at a concentration of 2 mg/ml in 50 mM sodium phosphate, pH 7.6. The temperature for enzymatic activity measurements was kept constant at 35° C.
(A) DEPC Inactivation of Heparinase III. At pH values ranging from 6.0 to 8.0, heparinase III (50 μg/mL) was incubated with DEPC in 50 mM sodium phosphate buffer at 25° C. The DEPC stock solution (6.9 M) was diluted with ethanol. […] At each pH, three reactions were run using different concentrations of DEPC, ranging from 50 μM to 2.5 mM. At fixed time intervals, 25 μL aliquots were withdrawn from the reaction mixtures for the UV 232 nm activity assay.
The kinetics of DEPC inactivation of heparinase III was determined by plotting the natural log of percent activity versus an adjusted time term (to account for the decomposition of DEPC). Briefly, this adjusted time term (t′) was calculated according to the following equation: […]
In this equation, k′ is the first order rate constant for DEPC hydrolysis and t is the measured time after addition of DEPC to the heparinase III solution. At each pH, the order of the reaction in DEPC was determined by plotting the observed rate constants of inactivation at each pH vs. log [DEPC]. The slope of this graph is n, the order of the reaction with respect to DEPC (Lundblad, R. (1995) Techniques in Protein Modification, CRC Press, Boca Raton).
Heparinase III was incubated with 0.31 (□), 0.54 (●), 0.97 (◯), 1.5 (▴), 1.9 (Δ) mM DEPC at pH 6.5 and at 25° C. (shown in inset of FIG. 1). […]

heparinase III [2] = molecular target: T1, heparinase III; test: Reactivation of DEPC-modified enzyme with hydroxylamine; set-up: Activity (%): concentration or dose not given beside the values
Method: (B) Reactivation of DEPC-Modified Enzyme with Hydroxylamine. Similar to what was completed with heparinase I and II (Godavarti, R., Cooney, C. L., Langer, R., and Sasisekharan, R. (1996) Biochemistry 35, 6846-52 and Shriver, Z., Hu, Y., and Sasisekharan, R. (1998) J. Biol. Chem. 273, 10160-67), heparinase III (50 μg/mL) was incubated with 0.97 mM DEPC, pH 6.5 until its enzymatic activity was reduced to 50% of its initial value. […] The reaction was incubated at room temperature for 6 hours. Aliquots were withdrawn every hour for the activity assay. The control mixture contained no DEPC but the same concentration of hydroxylamine to account for the loss of nonspecific activity. The ratio of the activity of the reaction mixture over the activity of the control was calculated to determine recovery of enzymatic activity.

heparinase III [3] = molecular target: T1, heparinase III; test: Quantification of histidines modified by DEPC (240 nm) with activity check
Method: (D) Quantification of the Number of Histidines Modified by DEPC. The extent of modification of an enzyme by DEPC can be determined by monitoring the formation of the N-carbethoxylhistidyl adduct at 240 nm. At time zero, 1.5 mM DEPC was added to the cuvette containing heparinase III in sodium phosphate buffer, pH 7.0. The change in absorbance at 240 nm was monitored every minute for 10 min. The number of modified residues was determined using a molar extinction coefficient of 3,200 M^−1cm^−1 (Lundblad, R. (1995) Techniques in Protein Modification, CRC Press, Boca Raton).
At time zero, 1.5 mM DEPC was added to a cuvette containing heparinase III (540 μg/mL) in sodium phosphate buffer, pH 7.0. The change in absorbance at 240 nm was monitored at time intervals for 10 min. The number of modified histidines was calculated using a ε=3200 M^−1cm^−1. At the beginning and end of the experiment, aliquots of heparinase III were withdrawn and tested for activity. Less than 5% of initial activity remained after 10 minutes incubation with DEPC.

heparinase III [4] = molecular target: T1, heparinase III; test: Substrate protection of heparinase III against DEPC inactivation; details: 2 mg/mL heparan sulfate 30 min before 1.5 mM DEPC
Method: (C) Substrate Protection of Heparinase III against DEPC Inactivation. Heparinase III (50 μg/mL) was pre-incubated with 2 mg/mL heparan sulfate in 50 mM sodium phosphate, pH 7.6 for 30 minutes prior to the addition of 1.5 mM DEPC. A control reaction with no prior incubation of substrate was also completed. The time course of inactivation for both was determined using the heparinase III activity assay.
Substrate protection of heparinase III inactivation by DEPC was also assessed (FIG. 4). Heparinase III (50 μg/mL) was incubated with 2 mg/mL heparan sulfate for 30 min. 1.5 mM DEPC was added to the reaction and time course of inactivation was completed using the heparinase III activity assay (O). A control reaction without pre-incubation with heparan sulfate was also done (□).

T1 sequence (Q59289 25-659): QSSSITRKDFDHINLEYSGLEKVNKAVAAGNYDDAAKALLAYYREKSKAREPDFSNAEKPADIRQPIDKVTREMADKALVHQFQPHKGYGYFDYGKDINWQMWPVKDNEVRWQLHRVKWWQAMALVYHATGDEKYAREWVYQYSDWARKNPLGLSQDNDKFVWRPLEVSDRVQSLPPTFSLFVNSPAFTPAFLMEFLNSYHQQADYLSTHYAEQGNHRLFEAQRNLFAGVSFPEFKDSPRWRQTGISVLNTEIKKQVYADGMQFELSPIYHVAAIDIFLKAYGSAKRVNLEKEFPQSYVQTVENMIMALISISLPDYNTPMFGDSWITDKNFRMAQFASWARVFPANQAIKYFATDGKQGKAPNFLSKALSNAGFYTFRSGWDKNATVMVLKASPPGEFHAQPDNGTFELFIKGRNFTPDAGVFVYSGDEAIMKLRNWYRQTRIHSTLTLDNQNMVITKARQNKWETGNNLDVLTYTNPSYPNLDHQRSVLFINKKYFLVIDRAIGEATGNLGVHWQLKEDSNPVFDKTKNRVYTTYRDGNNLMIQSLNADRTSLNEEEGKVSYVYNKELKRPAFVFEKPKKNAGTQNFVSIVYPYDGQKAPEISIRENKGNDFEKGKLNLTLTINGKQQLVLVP

CCOC(=O)OC(=O)OCC [DEPC, diethylpyrocarbonate]
inhibition of heparinase III (heparinase III [1]): inhibit in a dose-dependent fashion
kinact/KI (heparinase III [1]; 0.31-1.9 mM DEPC, pH 6.5, 25° C., read-out: second-order rate constant of inactivation (converted)): 3.33 M⁻¹ s⁻¹
order of the reaction in DEPC (slope of kinact vs. log [DEPC]) (heparinase III [1]; pH 6.5): 1
activity at 970 µM (heparinase III [2]; Time 0 min after hydroxylamine, 0.97 mM DEPC, pH 6.5): 51%
Activity (%) (heparinase III [2]; Time 30 min after hydroxylamine): 60%
Activity (%) (heparinase III [2]; Time 60 min after hydroxylamine): 66%
Activity (%) (heparinase III [2]; Time 90 min after hydroxylamine): 72%
Activity (%) (heparinase III [2]; Time 180 min after hydroxylamine): 76%
Activity (%) (heparinase III [2]; Time 240 min after hydroxylamine): 78%
Activity (%) (heparinase III [2]; Time 360 min after hydroxylamine): 80%
reversibility of DEPC modification (heparinase III [2]; incubation with 300 mM hydroxylamine): 90%
histidines modified per enzyme molecule (heparinase III [3]; 1.5 mM DEPC, pH 7.0, 10 minutes): 1.8
remaining activity at 1500 µM (heparinase III [3]; after 10 minutes incubation with 1.5 mM DEPC, pH 7.0, read-out: initial activity remaining): < 5%
inactivation kinetics after preincubation with heparan sulfate (heparinase III [4]): lower inactivation kinetics
